Reference: ChEMBL document CHEMBL1955784, “Novel 5-substituted 1H-tetrazoles as cyclooxygenase-2 (COX-2) inhibitors” (Bioorg Med Chem Lett, 2012)

Key:
[1] = biological target: T1, Prostaglandin G/H synthase 1 (Ovis aries, UniProt P05979); assay: Competitive inhibition of ovine COX1 by enzyme immunoassay
T1 sequence (P05979 whole entry): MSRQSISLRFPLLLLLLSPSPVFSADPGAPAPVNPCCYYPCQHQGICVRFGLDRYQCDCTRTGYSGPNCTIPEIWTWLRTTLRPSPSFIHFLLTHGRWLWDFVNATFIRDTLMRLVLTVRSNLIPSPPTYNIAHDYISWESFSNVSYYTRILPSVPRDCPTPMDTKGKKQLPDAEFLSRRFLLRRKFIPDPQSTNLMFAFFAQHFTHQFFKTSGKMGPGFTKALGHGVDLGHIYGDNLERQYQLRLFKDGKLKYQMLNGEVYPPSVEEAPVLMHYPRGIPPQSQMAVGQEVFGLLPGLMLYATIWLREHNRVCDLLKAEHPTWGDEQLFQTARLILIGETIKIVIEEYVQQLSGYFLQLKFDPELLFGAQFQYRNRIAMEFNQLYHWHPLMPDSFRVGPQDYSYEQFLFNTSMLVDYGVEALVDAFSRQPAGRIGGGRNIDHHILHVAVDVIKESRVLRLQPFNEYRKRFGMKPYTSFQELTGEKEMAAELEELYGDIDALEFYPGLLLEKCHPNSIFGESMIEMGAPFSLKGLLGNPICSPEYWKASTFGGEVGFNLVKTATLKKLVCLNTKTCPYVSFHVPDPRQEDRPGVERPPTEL

[2] = biological target: T2, Prostaglandin G/H synthase 2 (Homo sapiens, UniProt P35354); assay: Competitive inhibition of human recombinant COX2 by enzyme immunoassay
T2 sequence (P35354 whole entry): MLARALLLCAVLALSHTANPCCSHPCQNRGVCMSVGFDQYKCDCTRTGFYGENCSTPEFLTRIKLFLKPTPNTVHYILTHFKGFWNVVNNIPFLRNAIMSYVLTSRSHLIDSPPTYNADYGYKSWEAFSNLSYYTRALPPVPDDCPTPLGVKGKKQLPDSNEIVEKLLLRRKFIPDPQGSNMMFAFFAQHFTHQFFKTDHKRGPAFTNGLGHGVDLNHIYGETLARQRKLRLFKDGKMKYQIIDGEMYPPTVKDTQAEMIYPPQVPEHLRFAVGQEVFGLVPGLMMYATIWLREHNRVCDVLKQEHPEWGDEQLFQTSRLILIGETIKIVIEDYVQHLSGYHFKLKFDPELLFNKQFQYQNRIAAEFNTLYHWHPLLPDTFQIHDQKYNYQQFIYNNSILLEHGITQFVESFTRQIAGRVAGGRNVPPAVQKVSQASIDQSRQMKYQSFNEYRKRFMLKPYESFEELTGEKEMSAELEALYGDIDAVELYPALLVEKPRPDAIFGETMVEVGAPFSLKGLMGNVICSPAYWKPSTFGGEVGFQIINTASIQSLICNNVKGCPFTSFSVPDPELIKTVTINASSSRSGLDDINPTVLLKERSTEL

Row | Compound | IC50 [1] | IC50 [2]
1 | CS(=O)(=O)c1ccc(-n2nnnc2-c2ccc(Cl)cc2)cc1 | > 100 µM | 32 µM
2 | NS(=O)(=O)c1ccc(-n2nnnc2-c2ccc(Cl)cc2)cc1 | > 100 µM | 62 µM
3 | Cc1ccc(-c2nnnn2-c2ccc(S(N)(=O)=O)cc2)cc1 | > 100 µM | > 100 µM
4 | CS(=O)(=O)c1ccc(-n2nnnc2-c2ccc([N+](=O)[O-])cc2)cc1 | > 100 µM | 69 µM
5 | CS(=O)(=O)c1ccc(-n2nnnc2-c2ccc(F)cc2)cc1 | > 100 µM | 15 µM
